Measured values as given in US20210052608A1, “METHODS OF TREATING BACTERIAL INFECTIONS WITH MINOCYCLINE” (Melinta Therapeutics, Inc., priority 2018, published 2021).
Entries after “also recorded” stand apart in the source; their conditions may differ.

Tests used:
[1] = Plasma pharmacokinetics of minocycline, single ascending dose (SAD) phase, 1 hour intravenous infusion; parameters: species or system human (healthy adult subjects); conditions: human, in vivo; for half-life: mean, N=8
Protocol: (§1) This example describes outcomes among healthy adult subjects in a randomized, double-blind, placebo-controlled, single- and multiple ascending dose (SAD/MAD) study of 6 intravenous doses (cohorts) ranging from 100 mg to 600 mg of minocycline. […] Within each cohort, subjects received a single dose on Day 1, followed by a loading dose on Day 4, then 7 days of twice-daily dosing (Days 4-10), followed by a single dose on Day 11 as shown in Table 1. Within each cohort, subjects were randomly assigned to minocycline (n=8) or normal saline placebo (n=2). Serial blood and urine samples were collected for pharmacokinetic assessment. All infusions were administered over 1 hour. Plasma samples were obtained at 1 (end-of-infusion), 2, 4, 8, 12, 18, 24, 36, 48, and 72 hours after the start of dosing after single or multiple doses and assayed for minocycline content using a validated HPLC/MS method. Concentration of minocycline in healthy volunteers after a one hour IV infusion is shown in FIG. 1, while concentration of minocycline in healthy volunteers after a loading dose then twice daily dosing for seven days is shown in FIG. 2.

[2] = Plasma pharmacokinetics of minocycline, twice-daily ascending dose (MAD) phase, loading dose then BID dosing for 7 days; parameters: species or system human (healthy adult subjects); conditions: human, in vivo; for AUC(0-t): AUC0-t; for clearance: Cl (plasma clearance); for Vd: Vss (volume of distribution at steady state); for half-life: mean; for Cmax: iv
Protocol: as §1

[3] = Plasma pharmacokinetics of minocycline, single ascending dose (SAD) phase, 1 hour intravenous infusion; parameters: species or system human (healthy adult subjects); conditions: human, in vivo; single 600 mg IV dose, mean, N=9
[4] = Safety and tolerability (adverse events) in the SAD/MAD study of intravenous minocycline; type: in vivo, human (healthy adult subjects)
Protocol: This example describes outcomes among healthy adult subjects in a randomized, double-blind, placebo-controlled, single- and multiple ascending dose (SAD/MAD) study of 6 intravenous doses (cohorts) ranging from 100 mg to 600 mg of minocycline. Each cohort consisted of 10 subjects (8 active drug and 2 placebo). Within each cohort, subjects received a single dose on Day 1, followed by a loading dose on Day 4, then 7 days of twice-daily dosing (Days 4-10), followed by a single dose on Day 11 as shown in Table 1. Within each cohort, subjects were randomly assigned to minocycline (n=8) or normal saline placebo (n=2). Serial blood and urine samples were collected for pharmacokinetic assessment.
Safety was assessed throughout the study. Of the adverse events (AE) observed in more than 10% of subjects, the vast majority were assessed by the investigator as likely to be related to study drug (Table 5). A total of 21 subjects out of 57 discontinued the trial. Six of 10 subjects in cohort 4 discontinued during the MAD portion (400 mg BID) of the trial due to mild to moderate dizziness. Dosing was discontinued in the remaining 4 subjects in that cohort and cohorts 5 and 6 were limited to 300 mg BID for the MAD portion of the trial. Four subjects in cohort 6 (600 mg/300 mg) discontinued due to nausea.

CN(C)c1ccc(O)c2c1C[C@H]1C[C@H]3[C@H](N(C)C)C(O)=C(C(N)=O)C(=O)[C@@]3(O)C(O)=C1C2=O [minocycline]
Dose proportionality of exposure ([1]; iv): increased in a dose proportional fashion with exception of the 500 mg dose
AUC(0-inf) ([1]; iv, 100 mg): 9730 ng·h/mL
clearance ([1]; iv, 100 mg): 175 mL/min
AUC(0-inf) ([1]; iv, 200 mg): 25900 ng·h/mL
clearance ([1]; iv, 200 mg): 137 mL/min
AUC(0-inf) ([1]; iv, 300 mg): 39200 ng·h/mL
clearance ([1]; iv, 300 mg): 138 mL/min
AUC(0-inf) ([1]; iv, 400 mg): 63600 ng·h/mL
clearance ([1]; iv, 400 mg): 112 mL/min
AUC(0-inf) ([1]; iv, 500 mg): 53800 ng·h/mL
clearance ([1]; iv, 500 mg): 171 mL/min
AUC(0-inf) ([1]; iv, 600 mg): 83000 ng·h/mL
clearance ([1]; iv, 600 mg): 135 mL/min
half-life ([1]; single 100 mg IV dose): 663 min
half-life ([1]; single 200 mg IV dose): 822 min
half-life ([1]; single 300 mg IV dose): 997 min
half-life ([1]; single 400 mg IV dose): 1050 min
half-life ([1]; single 500 mg IV dose): 866 min
AUC(0-t) ([2]; 100 mg): 27500 ng·h/mL
clearance ([2]; 100 mg): 58.2 mL/min
Vd ([2]; 100 mg): 72 L
half-life ([2]; 100 mg, single dose 100 mg, BID dosing 100 mg, N=6): 953 min
AUC(0-t) ([2]; 200 mg): 80700 ng·h/mL
clearance ([2]; 200 mg): 41.3 mL/min
Vd ([2]; 200 mg): 58.4 L
half-life ([2]; 200 mg, single dose 200 mg, BID dosing 200 mg, N=6): 1090 min
AUC(0-t) ([2]; 300 mg): 174000 ng·h/mL
clearance ([2]; 300 mg): 32 mL/min
Vd ([2]; 300 mg): 47 L
half-life ([2]; 300 mg, single dose 300 mg, BID dosing 300 mg, N=7): 1190 min
half-life ([2]; 300 mg, single dose 500 mg, BID dosing 300 mg, N=7): 1090 min
half-life ([2]; 300 mg, single dose 600 mg, BID dosing 300 mg, N=4): 1210 min
half-life ([2]; 300 mg, single dose 300, 500, or 600 mg (pooled), BID dosing 300 mg, N=18): 1150 min
clearance [2]: 44 mL/min
Vd [2]: 58.1 L
Cmax ([2]; 100 mg): 1710 ng/mL
Cmax ([2]; 200 mg): 4590 ng/mL
Cmax ([2]; 300 mg): 8910 ng/mL
half-life [3]: 1040 min
Maximum tolerated multi-dose ([4]; administered twice daily, IV): 300 mg
Subjects discontinued due to nausea in cohort 6 ([4]; cohort 6 (600 mg/300 mg)): Four
Subjects reporting study drug related adverse events, % ([4]; human, in vivo): 79.9%
Subjects who discontinued the trial, total ([4]; human, in vivo): 21
Subjects with dizziness, % ([4]; human, in vivo): 59.4%
Subjects with dizziness, number ([4]; human, in vivo): 41
Subjects with moderate nausea and/or dizziness, number ([4]; human, in vivo): 9
Subjects with nausea, % ([4]; human, in vivo): 50.7%
Subjects with nausea, number ([4]; human, in vivo): 35
Subjects discontinued from study drug in the 400 mg cohort (cohort 4) ([4]; human, in vivo, 7 days): 6
Tolerability of single intravenous doses ([4]; single IV doses up to 600 mg): tolerated reasonably well
Serious adverse events ([4]; whole SAD/MAD study, 100 mg to 600 mg IV): No serious adverse events occurred; also recorded: No serious adverse events (SAEs) were reported
Most common adverse effects ([4]; whole study): mild nausea and dizziness
